Patent US11851391B2, “Antifungal compounds and methods of forming the same” (University of Kentucky Research Foundation, priority 2018, dated 2023)
“Also recorded” adds a separate entry of the source.

Experiments:
Type in all cases: cell-based, Candida albicans
[1] = test system: C. albicans ATCC 10231 (strain A) biofilms; test: Biofilm disruption assay (XTT reduction)
Experimental: (§1) Biofilms are complex communities of one or more species of microorganisms encased in extracellular polymeric substances and attached to not only a solid surface but also to each other. Because of their complex, matrix-like nature, antifungal agents are often unable to reach the pathogens embedded in these networks. […] This increase reflected some resistance of Candida biofilms against the bishydrazone 17c.
(§2) Biofilm disruption assays were performed to assess the effectiveness of compound 17c against sessile yeast cells for two representative yeast strains, C. albicans ATCC 10231 (strain A) and C. albicans ATCC 64124 (strain B). VOR was used as a positive control. Biofilm assays were performed in 96-well plates using XTT [2,3-bis(2-methoxy-4-nitro-5-sulfophenyl)-2H-tetrazolium-5-carboxanilide] to measure the viability of the biofilm as previously described. An overnight culture of the yeast cells was grown at 35° C. in YPD medium with shaking at 200 rpm. The overnight culture was diluted in RPMI 1640 medium to an OD600 between 0.12 and 0.15 to make a working stock. The working stock was transferred to 96-well plates in 100 μL aliquots, leaving one column empty for the sterile controls. […] 80 μL of liquid from each well was transferred to new plates, which were then read for absorbance at 450 nm with a SpectraMax M5 plate reader (Molecular Devices, Sunnyvale, CA, USA). […]

[2] = test system: C. albicans ATCC 64124 (strain B) biofilms; test: Biofilm disruption assay (XTT reduction)
Experimental: as §1, §2

[3] = test system: C. albicans ATCC 64124 (strain B); test: Time-kill assay
Text: (§3) To determine the fungistatic or fungicidal nature of the compounds, time-kill assays were next performed over a 24-hour period with 4,4′-bis((E)-1-(2-(4-fluorophenyl)hydrazono)ethyl)-1,1′-biphenyl (17c).
(§4) Time-kill assays were used to assess the inhibitory efficiency of compound 17c against two yeast strains, C. albicans ATCC 10231 (strain A) and C. albicans ATCC 64124 (strain B). The protocol for time-kill assays followed methods previously described with minor modifications. Yeast cultures were grown overnight in YPD medium at 35° C. with shaking at 200 rpm. A working stock of fungal cells was made by diluting cultures in RPMI 1640 medium to an OD600 of 0.125 (˜1×10^6 CFU/mL). From the working stock, 100 μL of cells were added to 4.9 mL of RPMI 1640 medium in sterile culture tubes, making the starting fungal cell concentration […]. Compounds were then added to the fungal cells. […] The treated fungal cultures were incubated at 35° C. with 200 rpm shaking for 24 h. Samples were aliquoted from the different treatments at regular time points (0, 3, 6, 9, 12, and 24 h) and plated in duplicate. For each time point, cultures were vortexed, 100 μL of culture were aspirated, and 10-fold serial dilutions were made in sterile ddH2O. From the appropriate dilutions, 100 μL of fungal suspension was spread onto PDA plates and incubated at 35° C. for 48 h before colony were counted. At 24 h, 50 μL of 1 mM resazurin in PBS was added to the treatments and incubated at 35° C. with 200 rpm shaking for 2 h in the dark for visual inspection (FIGS. 5A-D). Experiments were performed in duplicate.

[4] = test system: C. albicans ATCC 10231 (strain A); test: Time-kill assay
Text: as §3, §4

- increase of SMIC values compared to planktonic MIC value [1]: 4- to 16 fold
- increase of SMIC values compared to planktonic MIC value [2]: 4- to 8 fold
SMILES: C/C(=N\Nc1ccc(F)cc1)c1ccc(-c2ccc(/C(C)=N/Nc3ccc(F)cc3)cc2)cc1 [Compound 17c, 4,4′-bis((E)-1-(2-(4-fluorophenyl)hydrazono)ethyl)-1,1′-biphenyl]
- reduction in fungal growth compared with VOR ([3]; 17c at equal to or one-half of the MIC value versus VOR at the MIC value): greater reduction in fungal growth
- fungistatic or fungicidal nature ([3]; 24-hour period, up to twice its MIC value): fungistatic; also recorded: more fungistatic than the control drug VOR
- reduction in fungal growth compared with VOR ([4]; 17c at one-half of the MIC value versus VOR at the MIC value): greater reduction in fungal growth
- fungistatic or fungicidal nature ([4]; 24-hour period, 0.5x, 1x, 2x MIC): fungistatic; also recorded: more fungistatic than the control drug VOR
